The test system of test [1] is Wnt activity (Sp5-Luc reporter, SW480 colon carcinoma cells). Briefly: Wnt activity screening assay: Sp5-Luc reporter gene assay in SW480 cells. It counts as cell-based. The settings on record: Homo sapiens; for EC50: SW480 cells, overnight incubation; for inhibition at 10 µM: given where EC50 >10 μM, SW480, read-out: percent inhibition at 10 μM. Summed up: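 SW480 cells stably carrying Sp5-Luc reporter (eight TCF/LEF sites) plated at 4,000/well in 1% FBS medium with compound (10-point 1:3 series from 10 μM, 0.1% DMSO) overnight at 37 °C. BrightGlo luminescence normalized to DMSO; EC50 by four-parameter fit, else % inhibition at 10 μM.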

Test [2] deals with primary human mesenchymal stem cells (hMSCs). Description: Chondrogenesis induction in mesenchymal stem cells (nodule count). The settings on record: 144 h, 6 days; for Emax: relative to TGF-β3 (10 ng/mL) positive control, read-out: Max. Activity as % TGF-β3 activity; for EC50: concentration required to induce 50% levels of chondrogenesis vs TGF-β3, read-out: Conc (nM) of 50% TGF-β3 activity. It is filed as cell-based. As to the method: Representative compounds were screened using primary human mesenchymal stem cells (hMSCs) to determine their ability to induce chondrogenesis (process by which cartilage is developed).
Human Mesenchymal Stem Cell Culture: Primary human mesenchymal stem cells (hMSCs) were purchased from Lonza (Walkersville, Md.) and expanded in Mesenchymal Stem Cell Growth Media (Lonza). Cells between passage 3 and 6 were used for the experiments.
Compound Screening: Each compound was dissolved in DMSO as a 10 mM stock and used to prepare compound source plates. Serial dilution (1:3, 6-point dose-response curves from 2700 nM to 10 nM) and compound transfer was performed using the ECHO 550 (Labcyte, Sunnyvale, Calif.) into 96-well clear bottom assay plates (Greiner Bio-One) with appropriate DMSO backfill for a final DMSO concentration of 0.03%. hMSCs were plated at 20,000 cells/well in 250 μL/well Incomplete Chondrogenic Induction Medium (Lonza; DMEM, dexamethasone, ascorbate, insulin-transferrin-selenium [ITS supplement], gentamycin-amphotericin [GA-1000], sodium pyruvate, proline and L-glutamine). TGF-β3 (10 ng/mL) was used as a positive control for differentiation while negative control wells were treated with 75 nL DMSO for normalization and calculating EC50 values. Cells were incubated at 37° C. and 5% CO2 for 6 days. To image chondrogenic nodules, the cells were fixed using 4% formaldehyde (Electron Microscopy Sciences), and stained with 2 μg/mL Rhodamine B (Sigma-Aldrich) and 20 μM Nile Red (Sigma-Aldrich) [Johnson K., et. al, A Stem Cell-Based Approach to Cartilage Repair, Science, (2012). 336(6082), 717-721]. The nodules imaged (4 images per well at 4× magnification) by excitation at 531 nm and emission at 625 nm and quantified using the CellInsight CX5 (Thermo Scientific). Number of nodules in each well was normalized to the average of 3 DMSO treated wells on the same plate using Excel (Microsoft Inc.). The normalized averages (fold change over DMSO) of 3 replicate wells for each compound concentration were calculated. Due to solubility limitations of some of the compounds, curve fitting was incomplete leading to inaccurate EC50 determinations.
Using TGF-β3 as a positive control, the concentration of representative compounds required to induce 50% levels of chondrogenesis is reported. In addition, the maximum activity of each compound and the respective dose that each compound reached maximum chondrogenesis activity is reported.

From patent US10206909B2, “3-(1H-pyrrolo[2,3-B]pyridin-2-yl)-1H-pyrazolo[4,3-B]pyridines and therapeutic uses thereof” (Samumed, LLC, priority 2015, dated 2019) come the findings set out here.

Where only a bound is given, the exact number is not on record here.

`CN1CCN(c2ccnc3[nH]c(-c4n[nH]c5ccc(-c6cncc(NC(=O)C(C)(C)C)c6)nc45)cc23)CC1` [Compound 232, N-(5-(3-(4-(4-Methylpiperazin-1-yl)-1H-pyrrolo[2,3-b]pyridin-2-yl)-1H-pyrazolo[4,3-b]pyridin-5-yl)pyridin-3-yl)pivalamide] displayed an EC50 in test [1] of 3.83 µM. Besides, the Emax in test [2] was 24%.

On to `CN1CCN(c2ccnc3[nH]c(-c4n[nH]c5ccc(-c6cncc(NC(=O)c7ccccc7)c6)nc45)cc23)CC1` [Compound 235, N-(5-(3-(4-(4-Methylpiperazin-1-yl)-1H-pyrrolo[2,3-b]pyridin-2-yl)-1H-pyrazolo[4,3-b]pyridin-5-yl)pyridin-3-yl)benzamide], for which the EC50 in test [1] is 6.09 µM; in test [2], 10 nM. The Emax in test [2] was determined as 62%.

Consider `CN1CCN(c2ccnc3[nH]c(-c4n[nH]c5ccc(-c6cncc(NC(=O)CC(C)(C)C)c6)nc45)cc23)CC1` [Compound 240, 3,3-Dimethyl-N-(5-(3-(4-(4-methylpiperazin-1-yl)-1H-pyrrolo[2,3-b]pyridin-2-yl)-1H-pyrazolo[4,3-b]pyridin-5-yl)pyridin-3-yl)butanamide], for which, in test [1], the EC50 turned out to be 3.91 µM. In addition, the Emax in test [2] worked out at 30%.

For `c1cncc(-c2ccc3[nH]nc(-c4cc5cccnc5[nH]4)c3n2)c1` [Compound 256, 5-(Pyridin-3-yl)-3-(1H-pyrrolo[2,3-b]pyridin-2-yl)-1H-pyrazolo[4,3-b]pyridine], in test [1], the EC50 was above 10 µM and the inhibition at 10 µM worked out at 47%. In test [2], the EC50 came out at 10 nM and the Emax came to 66%.

The compound `CCNCc1cncc(-c2ccc3[nH]nc(-c4cc5cccnc5[nH]4)c3n2)c1` [Compound 258, N-((5-(3-(1H-Pyrrolo[2,3-b]pyridin-2-yl)-1H-pyrazolo[4,3-b]pyridin-5-yl)pyridin-3-yl)methyl)ethanamine] gave an EC50 in test [1] of 3.78 µM. In addition, in test [2], the EC50 is 10 nM and the Emax amounted to 80%.

With `CN(C)Cc1cncc(-c2ccc3[nH]nc(-c4cc5cccnc5[nH]4)c3n2)c1` [Compound 265, 1-(5-(3-(1H-Pyrrolo[2,3-b]pyridin-2-yl)-1H-pyrazolo[4,3-b]pyridin-5-yl)pyridin-3-yl)-N,N-dimethylmethanamine], in test [1], the EC50 was above 10 µM and the inhibition at 10 µM is 20.6%. The Emax in test [2] was 37%.

In turn, `FC1(F)CCN(Cc2cncc(-c3ccc4[nH]nc(-c5cc6cccnc6[nH]5)c4n3)c2)C1` [Compound 278, 5-(5-((3,3-Difluoropyrrolidin-1-yl)methyl)pyridin-3-yl)-3-(1H-pyrrolo[2,3-b]pyridin-2-yl)-1H-pyrazolo[4,3-b]pyridine] had an EC50 in test [1] of 0.104 µM. In test [2], the EC50 was found to be 100 nM and the Emax was found to be 134%.

With `c1cnc2[nH]c(-c3n[nH]c4ccc(-c5cncnc5)nc34)cc2c1` [Compound 279, 5-(Pyrimidin-5-yl)-3-(1H-pyrrolo[2,3-b]pyridin-2-yl)-1H-pyrazolo[4,3-b]pyridine], in test [1], the EC50 is above 10 µM and the inhibition at 10 µM worked out at 8%. Further, in test [2], the Emax worked out at 43%.

`CN(C)CCNc1cc(F)cc(-c2ccnc3[nH]c(-c4n[nH]c5ccc(-c6ccncc6)nc45)cc23)c1` [Compound 466, N^1-(3-Fluoro-5-(2-(5-(pyridin-4-yl)-1H-pyrazolo[4,3-b]pyridin-3-yl)-1H-pyrrolo[2,3-b]pyridin-4-yl)phenyl)-N^2,N^2-dimethylethane-1,2-diamine]: in test [1], the EC50 is above 10 µM and the inhibition at 10 µM amounted to 8.6%. For the same compound, the Emax in test [2] came to 17%.

Turning to `CN(C)CCNc1cc(F)cc(-c2ccnc3[nH]c(-c4n[nH]c5ccc(-c6cncc(CNCC7CCCC7)c6)nc45)cc23)c1` [Compound 473, N^1-(3-(2-(5-(5-(((Cyclopentylmethyl)amino)methyl)pyridin-3-yl)-1H-pyrazolo[4,3-b]pyridin-3-yl)-1H-pyrrolo[2,3-b]pyridin-4-yl)-5-fluorophenyl)-N^2,N^2-dimethylethane-1,2-diamine], the EC50 in test [1] was determined as 4.67 µM. Further, in test [2], the EC50 worked out at 900 nM and the Emax was 111%.

By inhibition is commonly meant the change of the read-out against control, counted positive when it falls.
